{
  "source": "patent EP2326328B1",
  "about": "“USE OF DIHYDRALAZINE FOR THE TREATMENT OF DISEASES RELATED TO ELEVATED SEMICARBAZIDE SENSITIVE AMINE-OXIDASE (SSAO) ACTIVITY” (Semmelweis Egyetem, priority 2008, dated 2010)",
  "experiment": "blood pressure and pulse of treated type 2 diabetic patients",
  "format": "in vivo, human",
  "settings": "type 2 diabetic patients, oral 14.5 mg dihydralazine sulphate twice daily",
  "experimental": "After giving their informed consent, patients participating in the study were treated for 56 days taking ½ tablet twice daily of a pharmaceutical composition containing 28.9 mg dihydralazine sulphate (i.e. the ½ tablet contained 14.5 mg dihydralazine sulphate).\nTo measure the efficacy and monitor the safety of the treatment, the following examinations were carried out before starting the treatment and at the 1., 7., 14., 28. and 56. day of the treatment: • 1. ocular examinations: visual acuity (ETDRS chart), slit-lamp examination, measurement of intraocular pressure with applanation tonometry, fundus biomicroscopy with pupil dilation, digital fundus photography. The grade of macular edema was determined via measuring retinal thickness with optical coherency tomography (OCT). • 2. internal medicine examinations: anamnesis, physical examinations, blood pressure, pulse, urine examination. • 3. laboratory examinations: blood glucose, HbA1c, liver function, kidney function, microalbuminuria, metabolic panel of the blood , lipids, CRP.\nIn the table the following abbreviations were used: • BMI: body mass index - weight (kg) / height (m^2) • RRsyst: blood pressure (systolic) (Hgmm) • RRdiast: blood pressure (diastolic) (Hgmm) • OCT CST (central subfield thickness): the average thickness of the central 1-mm area of the macula • OCT CPT (center point thickness): the thickness of the center point of the retina; normally that is the thinnest point of the macula Table 4.",
  "data": [
    {"substance": "dihydralazine sulphate", "values": [
      {"measurement": "blood pressure", "result": "no appreciable lowering of blood pressure was observed"}
    ]}
  ]
}
